From patent US20220118117A1, “MODULATORS OF METABOTROPIC GLUTAMATE RECEPTOR 4” (The General Hospital Corporation, priority 2019, published 2022)
Read-outs that look alike come from different tables or passages of the source.

How the values were obtained:
[1] = plasma protein binding, ultrafiltration assay using [18F]15; type: in vitro ADME; settings: human plasma
Procedure: Plasma Protein Binding Assay. An aliquot of radiolabeled compound [^18F]15 in saline (10 μL, 74 kBq) was added to a sample of human plasma (0.5 mL). The mixture was gently mixed by repeated inversion and incubated for 10 min at room temperature. Following incubation, a small sample (10 μL) was removed to determine the total radioactivity in the plasma sample (AT; AT=Abound+Aunbound). The upper part of the Centrifree tube was discarded, and an aliquot (10 μL) from the bottom part of the tube was removed to determine the amount of unbound radioactivity (Aunbound) that passed through the membrane (molecular weight cutoff 30 kD). The radioactivity of each sample was measured using PerkinElmer Wizard2 2480 gamma-counter. Plasma protein binding was derived by the following equation: % unbound=Aunbound×100/AT.
As the PET tracer is delivered into the bloodstream, it can bind to albumin, α1-acid glycoprotein and lipoproteins. Plasma protein binding reduces the free drug in the bloodstream and inhibits BBB penetration to reach the brain target. (Ref 44) The PPB value was obtained with an ultrafiltration assay by using [^18F]15. […] These pharmacological properties along with other molecular properties such as MW, tPSA and HBO are in the range normally considered favorable for a PET ligand.

plasma stability = type: in vitro ADME; settings: rat plasma; for Plasma stability, remaining of the intact test compound: 37° C.
Procedure: Briefly, each tube is added 882 μL of 1:1 diluted rat plasma with phosphate buffer (pH 7.4). 18 μL (100 μM) of DMSO stock solution of the test compound (4, 13 and 15) or positive control compound (Diltiazem) was added to make a final compound concentration 2 μM in the plasma solution and final DMSO content 2%. The mixture was incubated at 37° C. After the incubation at 0, 15, 30, 60, and 120 min time points, aliquots of 50 μL samples were quenched with 100 μL of ice-cold acetonitrile with 25 μM of the internal reference (for HPLC analysis), respectively. The quenched samples were centrifuged at 10,000×g, and the supernatant was analyzed by HPLC. The percentage of remaining intact test compound was calculated by (peak area at the specific time point)/(peak area at 0 min)×100. Every sample was assayed three times.

mGluR4 = mGluR4 (Homo sapiens, UniProt Q14833); test: GloSensor cAMP biosensor assay, mGluR4 PAM and agonist activity; type: cell-based; parameters: expressed in transfected cells
Procedure: Cell Culture. HEK-293 cells were maintained with complete Dulbecco's modified Eagle's medium (DMEM), which was composed of 10% fetal bovine serum (FBS), 2 mM L-glutamine, 100 units/mL penicillin G, 100 μg/mL streptomycin at 37° C. in the presence of 5% CO2. HEK-293 stable cell lines with tetracycline inducible expression of mGluR1, mGluR2, mGluR4, mGluR6 or mGluR8 were maintained with complete DMEM with Hygromycin B (100 μg/mL), Blasticidin (15 μg/mL) at 37° C. in the presence of 5% CO2.
cAMP assay. The Gi/o coupled receptors (mGluR2, mGluR3, mGluR4, mGluR6 and mGluR8) were tested using cAMP assay. Promega's split luciferase based GloSensor cAMP biosensor technology was used in determining Gi-GPCR mediated cAMP production in live cells. On the cells stably expressing mGluR2, mGluR3, mGluR4, mGluR6 or mGluR8, GloSensor cAMP DNA construct was transfected overnight. Cells were seeded into PLL coated 384-well white clear bottom cell culture plates with complete BME Buffer with Tetracycline (1 μg/mL) at a density of 20,000 cells for another 24 h. The cell medium was removed and then 20 μL of buffer was loaded. […] Luminescence was counted in a Trilux luminescence counter. Data were analyzed with Prizm 5.0 (GraphPad software).
Secondary assays—Dose-response assays. […] For each compound, the results from four replicates were averaged and then either EC50 or IC50 values were calculated by non-linear regression using the 4-parameter logistic equation. […]
In sum, the mGluR4 PAM activity was determined using Promega's split luciferase based GloSensor cAMP biosensor assay (refs. 41-42). mGluR4 is coupling to Gαi protein to inhibit adenylate cyclase, which converts ATP to cAMP, which plays an important role in many signal transduction pathways. […] The mGluR4 PAM activity of 15 was evaluated in presence of EC20 concentration of agonist (1 μM L-SOP) by measuring changes in intracellular cAMP concentration.

[2] = Log D7.4, scaled-down shake flask method using [18F]15; type: physicochemical; settings: octanol / phosphate buffer pH 7.4
Procedure: The test tube was mixed by vortex for 2 min and then centrifuged for 2 min to fully separate the aqueous and organic phase. The samples taken from the octanol layer (0.1 mL) and the aqueous layer (1.0 mL) were saved for radioactivity measurement. An additional aliquot of the octanol layer […] was carefully transferred to a new test tube containing 0.5 mL of octanol and 2.5 mL of phosphate buffer solution (pH 7.4). The previous procedure (vortex mixing, centrifugation, sampling, and transfer to the next test tube) was repeated until six sets of aliquot samples had been prepared. The radioactivity of each sample was measured using PerkinElmer Wizard2 2480 gamma-counter. The log D of each set of samples was calculated as the following:
Log D7.4=Log(radioactivity of octanol layer×10/radioactivity of PBS layer)
Lipophilicity has a major effect on BBB penetration, ADMET properties and pharmacological activity. […] The Log D7.4 of 15 was 3.82 as measured with a scaled-down shake flask method using [^18F]15 (Table 2) and is in the range normally considered favorable for a PET ligand. (Ref. 43).

Sequence of mGluR4 (Q14833 33-912): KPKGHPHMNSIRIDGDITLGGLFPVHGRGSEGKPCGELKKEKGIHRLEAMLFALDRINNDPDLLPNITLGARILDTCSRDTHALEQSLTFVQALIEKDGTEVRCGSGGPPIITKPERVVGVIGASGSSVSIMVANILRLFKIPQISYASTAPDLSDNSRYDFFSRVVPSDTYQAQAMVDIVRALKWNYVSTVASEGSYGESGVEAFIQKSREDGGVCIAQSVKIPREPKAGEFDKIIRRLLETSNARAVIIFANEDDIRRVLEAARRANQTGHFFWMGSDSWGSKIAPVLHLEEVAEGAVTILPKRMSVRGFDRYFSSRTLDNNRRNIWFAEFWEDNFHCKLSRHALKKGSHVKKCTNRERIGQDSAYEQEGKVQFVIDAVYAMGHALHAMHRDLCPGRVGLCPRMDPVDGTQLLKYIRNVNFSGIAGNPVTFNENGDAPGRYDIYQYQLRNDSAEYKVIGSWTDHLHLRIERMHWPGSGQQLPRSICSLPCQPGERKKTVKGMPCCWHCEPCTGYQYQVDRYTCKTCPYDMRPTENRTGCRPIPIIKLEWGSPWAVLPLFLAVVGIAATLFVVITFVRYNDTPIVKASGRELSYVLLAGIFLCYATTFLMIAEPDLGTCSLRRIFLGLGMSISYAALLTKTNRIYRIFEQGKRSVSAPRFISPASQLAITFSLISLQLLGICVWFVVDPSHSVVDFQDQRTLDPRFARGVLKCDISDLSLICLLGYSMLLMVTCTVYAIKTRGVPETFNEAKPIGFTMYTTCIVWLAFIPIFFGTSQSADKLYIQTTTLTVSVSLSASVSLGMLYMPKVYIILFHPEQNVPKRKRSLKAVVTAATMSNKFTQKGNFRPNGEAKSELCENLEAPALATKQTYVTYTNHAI

[2H]C([2H])(F)Sc1cc(NC(=O)c2ccccn2)ccc1Cl [Compound 15, N-(4-Chloro-3-((fluoromethyl-d2)thio)phenyl)picolinamide]
PPB (plasma protein binding) [1]: 93.1% | Plasma stability, remaining of the intact test compound (plasma stability; 0 min): 100.00 ± 1.88% | Plasma stability, remaining of the intact test compound (plasma stability; 15 min): 93.46 ± 1.96% | Plasma stability, remaining of the intact test compound (plasma stability; 30 min): 104.21 ± 2.84% | Plasma stability, remaining of the intact test compound (plasma stability; 60 min): 94.54 ± 5.18% | Plasma stability, remaining of the intact test compound (plasma stability; 120 min): 84.52 ± 10.16% | The plasma stability, The intact ± SEM at 120 min (%) (plasma stability; 120 min): 84.5 ± 10.2% | EC50 (mGluR4; agonist mode, cAMP assay, read-out: EC50, mGluR4 agonist activity): 2750 nM | EC50 (mGluR4; in presence of EC20 concentration of agonist (1 μM L-SOP), read-out: EC50, mGluR4 PAM activity): 324 nM | Log D7.4 [2]: 3.82
